The target of the experiment is T1, Human renin (Homo sapiens, UniProt P00797).
T1 construct: taking the active type (67-406); made in house; host or cells: FreeStyle 293-F cells (transient expression of pcDNA3.1(+)/hREN)
T1 sequence (P00797 67-406): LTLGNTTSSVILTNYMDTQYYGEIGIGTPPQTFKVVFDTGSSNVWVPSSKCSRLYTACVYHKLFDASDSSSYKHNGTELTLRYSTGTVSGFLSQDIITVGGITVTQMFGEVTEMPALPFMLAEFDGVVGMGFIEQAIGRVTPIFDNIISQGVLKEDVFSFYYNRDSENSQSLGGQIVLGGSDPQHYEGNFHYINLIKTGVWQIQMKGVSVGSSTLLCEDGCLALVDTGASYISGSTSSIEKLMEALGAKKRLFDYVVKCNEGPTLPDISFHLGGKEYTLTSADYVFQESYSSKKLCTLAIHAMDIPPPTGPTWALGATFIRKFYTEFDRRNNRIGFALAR
The experiment is described as follows: Measurement of renin inhibition value (human renin, FITC substrate peptide, capillary electrophoresis). In kind it is biochemical. Conditions: active type renin (67-406), pH 6.0, 37° C., 30 min; for inhibition at 1 µM: test compound 1 μM, read-out: Human Renin Inhibitory Activity: inhibitory activity (%) at 1 μM; for inhibition at 10 µM: test compound 10 μM, read-out: Human Renin Inhibitory Activity: inhibitory activity (%) at 10 μM. The protocol:
Human renin was obtained by expressing preprorenin (1-406) in an animal cell, treating the prorenin (24-406) contained in the culture supernatant with trypsin, and taking the active type (67-406).
A plasmid DNA to express human renin in HEK293 cells was prepared as follows. PCR was carried out using human renal cDNA (Clontech Laboratories, Inc., Marathon Ready cDNA) as the template and using two synthetic DNAs (5′-[…]-3′ AND 5′-[…]-3′), and the obtained fragments were cloned using a TOPO TA Cloning Kit (Invitrogen Corp.). The obtained fragments were subcloned into pcDNA3.1(+) that had been cleaved by HindIII and BamHI, thus to obtain a plasmid DNA for human preprorenin expression (PcDNA3.1(+)/hREN).
Expression of human preprorenin was conducted using FreeStyle 293 Expression System (Invitrogen Corp.). According to the manual accompanying the FreeStyle 293 Expression System, the plasmid DNA for human preprorenin expression (pcDNA3.1(+)/hREN) constructed in Experimental Example 1 was used to conduct transient expression by FreeStyle 293-F cells. After transfection of the plasmid DNA, the cells were subjected to shaking culture under the conditions of 37° C., 8% CO2 and 125 rpm for 3 days. A 600-ml aliquot of the culture solution was centrifuged at 2,000 rpm for 10 min to recover the culture supernatant containing prorenin (24-406). The culture supernatant was concentrated by ultrafiltration using a PM10 membrane (Millipore, Inc.) to a volume of about 50 ml, and then was dialyzed against 20 mM Tris-hydrochloric acid (pH 8.0). The dialyzate was fed to a 6-ml RESOURCE Q column (Amersham Biosciences, Inc.) equilibrated with 20 mM Tris-hydrochloric acid (pH 8.0) at a flow rate of 3 ml/min to adsorb the prorenin (24-406). After washing the column with the buffer solution used in the equilibration, elution was carried out by means of a linear concentration gradient of sodium chloride from 0 M to 0.4 M. The fraction containing prorenin (24-406) was collected and concentrated using Vivaspin 20 (molecular weight cut off 10,000; Vivascience, Inc.) to a volume of about 2 ml.
The concentrated liquid was subjected to gel filtration chromatography using HiLoad 16/60 Superdex 200 pg (Amersham Biosciences, Inc.) equilibrated with 20 mM Tris-hydrochloric acid (pH 8.0) containing 0.15 M sodium chloride, at a flow rate of 1.4 ml/min, thus to obtain 3.6 mg of purified prorenin (24-406).
To 3.6 mg of prorenin (24-406) was dissolved in 5.2 ml of 0.1 M Tris-hydrochloric acid (pH 8.0), 12 μg of trypsin (Roche Diagnostics Corp.) was added, and the mixture was allowed to react at 28° C. for 55 min to carry out activation of renin. After the reaction, 0.4 ml of immobilized trypsin inhibitor (Pierce Biotechnology, Inc.) was added to remove the trypsin used in the activation by adsorption. The reaction liquid containing the active type renin was concentrated using Vivaspin 20 (molcular weight cut off 10,000; Vivascience, Inc.), and was diluted with 20 mM Tris-hydrochloric acid (pH 8.0). The diluted liquid was fed to a TSKgel DEAE-5 PW column (7.5 mm I.D.×75 mm, Tosoh Corp.) equilibrated with 20 mM Tris-hydrochloric acid (pH 8.0) at a flow rate of 1 ml/min to adsorb the active type renin (67-406). The column was washed with the buffer solution used for the equilibration, and then elution was carried out by means of a sodium chloride linear concentration gradient from 0 M to 0.3 M, thus to obtain 1.5 mg of a purified product of active type renin (67-406).
5 μl each of the test compound (containing 50% DMSO) was added to each well of a 384-well black plate (Nalge Nunc International Co., Ltd.). Renin was diluted with a buffer solution for reaction (20 mM citric acid-sodium citrate (pH 6.0)) to a concentration of 0.5 μg/ml, and 35 μl each of the dilution was added to each well. […]

With `CCCCNc1ccccc1-n1ccc(C(=O)N2CCNCC2Cc2ccccc2)c1-c1ccccc1` (racemic) [Example 99, 2-(3-[(2-benzylpiperazin-1-yl)carbonyl]-2-phenyl-1H-pyrrol-1-yl}-N-butylaniline], the inhibition at 1 µM came to 105% and the inhibition at 10 µM is 107%.
Regarding `COc1cccc(-n2c(C)cc(C(=O)N3CCNC[C@H]3Cc3ccccc3)c2-c2ccccc2)c1OC` [Example 43, (2R)-2-benzyl-1-{[1-(2,3-dimethoxyphenyl)-5-methyl-2-phenyl-1H-pyrrol-3-yl]carbonyl}piperazine], the inhibition at 1 µM worked out at 104% and the inhibition at 10 µM came to 106%.
On to `O=C(c1ncn(-c2cccc(N3CCOCC3)c2)c1-c1ccccc1)N1CCNC[C@H]1Cc1ccccc1` [Example 56, 4-(3-(4-{[(2R)-2-benzylpiperazin-1-yl]carbonyl}-5-phenyl-1H-imidazol-1-yl)phenyl]morpholine], for which the inhibition at 1 µM amounted to 104% and the inhibition at 10 µM stood at 103%.
The corresponding values for `COc1cccc(-n2cnc(C(=O)N3CCNC[C@H]3Cc3ccccc3)c2-c2ccccc2)c1OC` [Example 57, (2R)-2-benzyl-1-([1-(2,3-dimethoxyphenyl)-5-phenyl-1H-imidazol-4-yl]carbonyl}piperazine] are 108% and 108%.
The corresponding values for `O=C(c1ncn(C2Cc3ccccc3C2)c1-c1ccccc1)N1CCNC[C@H]1Cc1ccccc1` [Example 73, (2R)-2-benzyl-1-{[1-(2,3-dihydro-1H-inden-2-yl)-5-phenyl-1H-imidazol-4-yl]carbonyl}piperazine] are 97% and 101%.
Take `Cc1cc(C(=O)N2CCNC[C@H]2Cc2ccccc2)c(-c2ccccc2)n1-c1cccc(N2CCOCC2)c1` [Example 105, 4-(3-(3-{[(2R)-2-benzylpiperazin-1-yl]carbonyl}-5-methyl-2-phenyl-1H-pyrrol-1-yl)phenyl]morpholine]: the inhibition at 1 µM turned out to be 102% and the inhibition at 10 µM came out at 104%.
In the case of `O=C(O)c1ccc(C[C@@H]2CNCCN2C(=O)c2ncn(-c3cccc(N4CCOCC4)c3)c2-c2ccccc2)cc1` [Example 161, 4-[((2R)-1-{[1-(3-morpholinophenyl)-5-phenyl-1H-imidazol-4-yl]carbonyl}piperazin-2-yl)methyl]benzoic acid], the inhibition at 1 µM came to 100% and the inhibition at 10 µM was 101%.
In the same order, the values of `CS(=O)(=O)c1ccc(COC[C@@H]2CNCCN2C(=O)c2ncn(-c3cccc(N4CCOCC4)c3)c2-c2ccccc2)cc1` [Example 472, 4-[3-(4-{[(2S)-2-({[4-(methylsulfonyl)benzyl]oxy}methyl)piperazin-1-yl]carbonyl}-5-phenyl-1H-imidazol-1-yl)phenyl]morpholine] are 100% and 102%.
In the case of `COc1nc(C(=O)N2CCNC[C@H]2Cc2ccccc2)c(-c2ccccc2)n1-c1ccccc1` [Example 475, (2R)-2-benzyl-1-[(2-methoxy-1,5-diphenyl-1H-imidazol-4-yl)carbonyl]piperazine], the inhibition at 1 µM worked out at 97% and the inhibition at 10 µM is 99%.
Consider `O=C(c1ncn(C2CCCN(S(=O)(=O)c3ccccc3)C2)c1-c1ccccc1)N1CCNC[C@H]1Cc1ccccc1` (stereo partly drawn) [Example 476, (2R)-2-benzyl-1-({5-phenyl-1-[1-(phenylsulfonyl)piperidin-3-yl]-1H-imidazol-4-yl}carbonyl)piperazine], for which the inhibition at 1 µM came out at 99% and the inhibition at 10 µM was determined as 99%.
For `COc1ccc(S(=O)(=O)N2CCCC(n3cnc(C(=O)N4CCNC[C@H]4Cc4ccccc4)c3-c3ccccc3)C2)cn1` (stereo partly drawn) [Example 477, (2R)-2-benzyl-1-[(1-{1-[(6-methoxypyridin-3-yl)sulfonyl]piperidin-3-yl}-5-phenyl-1H-imidazol-4-yl)carbonyl]piperazine], the inhibition at 1 µM turned out to be 102% and the inhibition at 10 µM amounted to 104%.
Take `O=C(C[C@H](CCc1ccccc1)n1cnc(C(=O)N2CCNC[C@H]2Cc2ccccc2)c1-c1ccccc1)N1CCOCC1` [Example 478, 4-[(3S)-3-(4-{[(2R)-2-benzylpiperazin-1-yl]carbonyl}-5-phenyl-1H-imidazol-1-yl)-5-phenylpentanoyl]morpholine]: the inhibition at 1 µM came to 99% and the inhibition at 10 µM worked out at 101%.

For the origin of these results see patent US20100121048A1, “Cyclic Amine Compound and Use Thereof for the Prophylaxis or Treatment of Hypertension” (priority 2006, published 2010).
